In assay [1] the test system is pancreatic cancer cell lines (PANC-1, CFPAC-1, CAPAN-1, MIAPaCa-2, BXPC-3). Nature of the assay: Sulforhodamine B (SRB) cytotoxicity assay on pancreatic cancer cell lines. To be noted: increasing concentration, 72 h. It is filed as cell-based, human. The protocol: PANC-1, CFPAC-1, CAPAN-1, MIAPaCa-2, BXPC-3 and fibroblast cells were seeded for 24 h and were exposed to increasing concentration of Pimozide and vehicle for 72 h (FIG. 3A). The same procedure was followed for treatment of cancer cell lines with L741 (FIG. 3B). Cell viability was characterized using a SRB assay. Values are the mean+/−SD of six independent experiments.
Five pancreatic ductal cancer cell lines with various degree of differentiation were obtained from American Type Culture Collection (Rockville, USA) and Normal Human Dermal Fibroblasts (NHDF) obtained from PromoCell. BXPC-3 (moderately differentiated) as well as poorly differentiated human pancreatic cancer cell lines, PANC-1 and MIAPaCa-2, have been established from primary tumor. AsPC-1, CAPAN-1 and CFPAC-1 which represent well differentiated cell lines was isolated from ascites and liver metastasis of pancreas adenocarcinoma. All cell lines contain mutation in P53 whereas K-ras mutation reported in all with the exception of BxPc3. BRCA2 mutation just reported in CAPAN-1 cells.
Sulforhodamine B sodium salt (sigma) was used to assess cell viability and IC50 determination of pancreatic cancer cells. […] Cell viability was specified by using plate reader (TECAN) with measuring of absorbance at 570 and 650 nm (background) in treated or untreated 96 well plate.
(In general: The SRB assay estimates cell density from bound dye.)

Assay [2] has as its system KPC-023, KPC-01 and KPC-LM pancreatic cancer cell lines. Nature of the assay: Viability of primary and metastatic pancreatic cancer cell lines isolated from KPC mice. The assay is classed as cell-based. To be noted: primary (KPC-023, KPC-01) and metastatic (KPC-LM) lines.
Another assay relates to PANC-1 cells. Nature of the assay: Wound healing (scratching) assay for cell migration. The assay is classed as cell-based, human. To be noted: PANC-1, increasing concentrations, 10 h. The protocol:
PANC-1 cells were plated in the chamber were already attached in 12 well plate and allowed to grow for 24 h. Then, a wound was made in the confluent monolayer by removing the chamber. Cells were exposed to increasing concentration of Pimozide (FIG. 6A) or L741 (FIG. 6B) and vehicle for 10 h. Wound gap closure was measured for each drug concentration by comparing the gap at time 0 h to the one at the time 10 h when the gap closed in negative control and normalized to untreated condition.
PANC-1 cells were seeded into the 35 mm-dish culture-silicon Insert frames from Ibidi where already attached to the 6 well culture plate. When 96-98% confluency was achieved, the insert frames were removed using sterile forceps to reach cell free gap. To create a reference point for subsequent measurements, three different part of the gap was marked on the underside of the plastic. Floating cells and cell debris were washed using PBS, relative culture medium was added to each wells and migration distance was photographed using a Zeiss Axiovert 24 light microscope at zero time in the marked areas. Afterward, the wells were treated by addition of DMSO as control and different increasing concentration of Pim and L741. Plates were then placed into the incubator and the cells were allowed to migrate until the time when the gap for the […] closed (t time). Images were taken from the marked areas again. This assay was performed employing various concentrations of drugs at which maximum 5% viability inhibition was observed after 10 h treatment.

Assay [3] concerns locally advanced, unresectable, or metastatic pancreatic adenocarcinoma. As to conditions: patients with locally advanced; cited from earlier work.
The next assay concerns MIAPaCa-2 xenograft. Nature of the assay: Combination therapy in NSG mice, MIAPaCa-2 xenograft model. The assay is classed as in vivo. As to conditions: i.p. 16 days; pimozide 10 mg/kg daily; gemcitabine 20 mg/kg every 4 days.
In another assay the test system is pituitary tumor cells. To be noted: after treatment; cited from earlier work.
For assay [4], the system named is MIAPaCa-2, PANC-1 and AsPC-1 cells. Nature of the assay: Glucose uptake measurement (labelled 2-DG) in PDAC cell lines. It is filed as cell-based, human. As to conditions: all three cell lines; relative to DMSO control. An excerpt: (§1) Measurement of 2-deoxy-D-glucose uptake shown on the y-axis relative to control by PDAC cell lines (MIAPaCa2, left; PANC-1, middle; AsPC1, right) treated with DMSO (C), pimozide (P) or haloperidol (H) (FIG. 10A). Abundance of free cholesterol, as measured by staining with filipin, after treatment with haloperidol (H) or pimozide (P) in PDAC cell lines (MIAPaCa2, left; PANC-1, middle; AsPC1, right) (FIG. 10B top). Representative micrographs of filipin-labelled cholesterol. PDAC (MIAPaCa2, top; PANC-1, middle; AsPC1, bottom) cells were seeded for 24 hours and treated with 10 μM haloperidol (H) or pimozide (P) or DMSO for 18 hours (FIG. 10B bottom). Red-fluorescence represents propidium iodide (PI)-stained nuclei and blue-fluorescence represents filipin-stained cholesterol. mRNA levels of genes relative to R-actin shown on the y-axis involved in cholesterol biosynthesis (from left to right: SREBP1, SREBP2, INSIG1, HMGCR, LDLR) measured by qRT-PCR 18 hours post-treatment with DMSO (C), haloperidol (H) or pimozide (P) in three PDAC cell lines (MIAPaCa2, top; PANC-1, middle; AsPC1, bottom) (FIG. 10C).
The induction effect of pimozide or haloperidol on labeled 2-DG uptake in cancer cells were determined from measurement of the fluorescence intensity of cell lysates. […]

Another assay concerns MIAPaCa-2 cells. Nature of the assay: Orthotopic pancreatic tumor mouse model treated with DRD2 antagonists. It is filed as in vivo, mice. To be noted: compared to vehicle. The protocol: Two million MIAPaCa-2 cells were resuspended in 10 μL Matrigel (BD Biosciences, San Jose, Calif.) were orthotopically implanted into the tail of the pancreas of 6-week-old Nod scid gamma animals (Jackson Labs, Bar Harbor, Me.) (day 1). When tumors were palpable (day 27), mice were randomized into 2 groups (n=7 in control group and n=9 in haloperidol group) and injected intraperitoneally with either haloperidol (10 mg/kg) or solvent (dimethylsulfoxide [DMSO] control group) for 12 days. The experiment was terminated when control mice appeared moribund. Weight of the animal and final tumor weight and volume were measured.

Assay [5] relates to MIAPaCa-2, PANC-1 and AsPC-1 cells. Nature of the assay: Free cholesterol measurement (Filipin staining) in PDAC cell lines. To be noted: 10 μM, 18 hours; vs DMSO. It is filed as cell-based, human.
Description: as §1
Cancer cells were seeded for 24 hours and treated with pimozide, haloperidol or DMSO for 18 hours. The cells were fixed with paraformaldehyde, stained with Filipin™ and propidium iodide (PI), and photographed. Filipin™ is a fluorescent polyene antibiotic that binds to free cholesterol. […]

Assay [6] concerns SREBP1, SREBP2, INSIG1, HMGCR, LDLR mRNA. Nature of the assay: qRT-PCR of cholesterol biosynthesis genes in PDAC cell lines. It is filed as cell-based, human. To be noted: qRT-PCR 18 hours post-treatment; relative to actin.
Description: as §1
For mice xenograft tissue samples and cultured cells, the miRNeasy kit (Qiagen, Valencia, Calif.) was used to extract total RNA. […] Quantification values were calculated according to a standard curve method created from a dilution series. […]
A general note: Real-time PCR tracks product formation cycle by cycle.

Assay [7] concerns PANC-1, MIAPaCa-2 and AsPC-1 cell lines. Nature of the assay: PDAC cell line growth curves under combination therapy. The assay is classed as cell-based, human. To be noted: over time. The text has this:
FIGS. 11A and 11B show PDAC cell line growth curves following combination therapy with DRD2 antagonists, 2-deoxy-D-glucose, and atorvastatin. Percentage cell growth shown on the y-axis following treatment with control (blue line), pimozide (Pim, gray line), atorvastatin and 2-deoxy-D-glucose (ATR+2-DG, red line) and combination of Pim and ATR+2-DG (green line) over time in PANC-1 (top), MIAPaCa-2 (middle) and AsPC-1 (bottom) cell lines (FIG. 11A). Haloperidol (Hal, gray line) is used as the DRD2 antagonist for use alone or in combination with ATR+2-DG as described in A (FIG. 11B). Dosage are indicated for each cell line.
PDAC cell proliferation was measured during pharmacological inhibition of DRD2 alone and in combination with blockade of glycolysis and cholesterol synthesis. To suppress glycolysis, 2-DG, a glucose analog which is a competitor inhibitor of glucose metabolism, was used. To inhibit cholesterol synthesis, atorvastatin (ATR), a competitive inhibitor of 3-hydroxy-3-methylglutaryl-coenzyme A (HMG-CoA) reductase in the cholesterol biosynthesis pathway was used.

“Also recorded” adds a separate entry of the source.

Description for MIAPaCa-2 xenograft: Tumor volumes normalized to initial measurement shown in the y-axis every four days following treatment with either vehicle (gray line), the chemotherapeutic gemcitabine (green line), a combination therapy of 2-deoxy-D-glucose, atorvastatin and pimozide (2DG+ATR+Pim, redline), or a combination therapy of 2DG+ATR+Pim and gemcitabine (2DG+ATR+Pim+Gem, red dashed line) (FIG. 12A). […] Tumor weight (FIG. 12C) and volume of samples (FIG. 12D) harvested following treatment with, from left to right, control (Vehicle), 2DG+ATR, Pim alone, Pim+2DG+ATR, Gem alone, 2DG+ATR+Gem, Pim+Gem, or Pim+2DG+ATR+Gem.
NOD severe combined immunodeficiency gamma (NSG) mice were subcutaneously injected in the right flank with five million MIAPaCa-2 cells. Once tumors were detectable (200 mm^3), mice were randomized into 8 groups (5 in each group) and treated through intraperitoneal injection as indicated for 16 days. All drugs were given every day whereas gemcitabine was given every 4 days, alone or in combination. Experiment was terminated when control animals became moribund. The growth of tumors was measured every 4 days. Tumors were harvested and photographed. Tumor weights and volumes were measured.
The efficacy of the combined treatment approach was investigated using a MIAPaCa-2 xenograft model of pancreatic cancer.

As to `OC1(c2ccc(Cl)cc2)CCN(Cc2c[nH]c3ccccc23)CC1` [L-741,626], the “cell viability of pancreatic cancer cell lines” value in assay [1] is on record as “Specific toxicity effect; also recorded: dose dependent toxicity effect”. Moreover, the “viability of KPC mouse pancreatic cancer cell lines” value in [2] is listed as “sensitive; also recorded: Dose-dependent effects”. The figures for the “tumor cell migration (wound gap closure)” value with PANC-1 cells and in the assay with PANC-1 cells (listed as L741) were “tumor cell migration was affected” and “dose dependent inhibitory effect”, respectively.

With `Nc1ccn([C@@H]2O[C@H](CO)[C@@H](O)C2(F)F)c(=O)n1` [gemcitabine, 4-amino-1-[(2R,4R,5R)-3,3-difluoro-4-hydroxy-5-(hydroxymethyl)oxolan-2-yl]pyrimidin-2-one], in assay [3], the 1-year survival rate was 21% and the “median overall survival (OS)” value was 6 months. Further, in the assay with MIAPaCa-2 xenograft, the tumor volume result was “reduced tumor weight and volume”; the tumor weight entry is on record as “reduced tumor weight”.

For the compound `NCCc1ccc(O)c(O)c1` [dopamine], the cancer cell viability result in the assay with pituitary tumor cells is listed as “decreased significantly”.

Consider `O=C(CCCN1CCC(O)(c2ccc(Cl)cc2)CC1)c1ccc(F)cc1` [haloperidol], for which, in assay [4], the “glucose uptake (intracellular labelled 2-deoxy-D-glucose)” value was “elevated uptake of glucose; also recorded: enhanced glucose and cholesterol uptake”. Also, the metastatic dissemination entry in the assay with MIAPaCa-2 cells is listed as “reduces tumor volume, metastasis”. Further, the tumor volume entry with MIAPaCa-2 cells (haloperidol 10 mg/kg intraperitoneally for 12 days) is reported as “reduces tumor volume”. The “abundance of free cholesterol (Filipin staining)” value in assay [5] was “increased the abundance of free cholesterol; also recorded: enhanced glucose and cholesterol uptake”. Besides, the “viability of KPC mouse pancreatic cancer cell lines” value in assay [2] is recorded as “sensitive; also recorded: Dose-dependent effects”. The “expression of genes involved in lipogenesis / cholesterol biosynthesis” value in assay [6] is on record as “inducing expression of genes involved in lipogenesis”. Besides, in assay [7], the cell growth entry is reported as “reduced cell growth”.

Values taken from patent US10874685B2, “Pancreatic cancer therapy and diagnosis” (Deutsches Krebsforschungszentrum Stiftung des Öffentlichen …, priority 2014, dated 2020).
